Results published in US20150087610A1, “Method of Modifying Fertility” (Monell Chemical Senses Center, priority 2012, published 2015).
Entries after “also recorded” stand apart in the source; their conditions may differ.

How the values were obtained:
[1] = test system: mouse spermatids; assay: Calcium imaging of mouse spermatids with bitter tastants; assay type: cell-based; settings: for calcium response in the principal piece: compared with acrosome and midpiece; for increase in intracellular calcium, acrosome versus midpiece: subcellular areas; for number of cells responding: out of 29 cells; for cells responding with increased intracellular calcium: 29 cells
Description: (§1) Eight adult male mice of each genotype: C57BL/6 and Gnat^−/− mice, were sacrificed, and the testis and caudal epididymis were immediately removed and transferred into HS solution containing (mM): 135 NaCl, 5 KCl, 2 CaCl2, 1 MgCl2, 30 Hepes, 10 glucose, 10 lactic acid, and 1 pyruvic acid (pH adjusted to 7.4 with NaOH) (Xia et al., 2007). For isolation of spermatids, seminiferous tubules from mouse testicle were dissected out and placed in a […] containing 3 ml of HS medium. The tissue was finely minced and gently triturated with a fire-polished pipette, and the mixture was filtered with a 100 μm nylon cell strainer (BD Falcon, Bedford, Mass.). The dissociated cells were collected in a 1.5 ml plastic tube, and washed once in HS medium by centrifugation at 300 g for 4 min and resuspended in HS medium.
(§2) Mouse spermatogenic cells were loaded with 5 μM acetoxymethylester of Fura-2 (Fora-2/AM) and 80 μg/ml pluronic F127 (Molecular Probes, Eugene, Oreg.) and transferred onto coverslips (22×60 mm, No. 0, Thomas Scientific Co.) for at least 1 hour at room temperature. The coverslip with spermatogenic cells was mounted in a recording chamber and superfused with HS or HS containing tasting compounds or the bitter blocker probenecid (Sigma-Aldrich, St. Louis, Mo.) via a valve controller (VC-8, Warner, USA).
(§3) Imaging of calcium responses was conducted as previously described (Gomez et al, 2005). Stimulation duration was 30 seconds and perfusion rate was 0.8 ml/min. Cells were excited at 340 nm and 380 nm and signals at 510 nm were captured by a cooled CCD camera. The change in fluorescence ratio (F=F340/F380) was recorded for regions-of-interest drawn on the cells.
(§4) To analyze the dose-dependent calcium responses, the response intensity (FN) was normalized and expressed as ΔF/F0 value: ΔF/F0=(F−F0)/F0. Here F0 is the fluorescence at the beginning of stimulation, i.e., time 0, and F is the peak fluorescence ratio evoked by the stimulation. Dose-response curves and EC50 values were generated based on the normalized responses using the software Origins by nonlinear regression.

[2] = test system: sperm isolated from the Gnat3−/−mutant mice; assay: Calcium imaging of sperm from Gnat3−/− mutant mice; assay type: cell-based, mouse; settings: 2 mM
Description: as §1
(§5) For isolation of epididymal spermatozoa, three incisions were made to the caudal epididymis, which was incubated in a 1.5-ml tube containing 1 ml of HS medium and 5 mg/ml bovine serum albumin (BSA) in a 5% CO2 incubator at 37° C. for 20 minutes (Xia et al., 2007). Sperm cells released into the medium were collected from top 0.1 ml, which were adjusted to 1×10^7 cells/ml HS medium.
as §2, §3

[3] = test system: epididymal sperm cells; assay: Calcium imaging of mouse epididymal sperm cells with bitter tastants; assay type: cell-based; settings: for cells responding with calcium responses: 49 cells; for # CELLS RESPONDED / calcium responses from the principal pieces / amplitudes of the responses from the acrosome and midpiece: epididymal sperm; for amplitudes of the responses from the acrosome and midpiece: subcellular areas
Description: as §5, §2, §3, §4

[4] = target: human Tas2r38 (Homo sapiens, UniProt P59533); settings: cited from earlier work
[5] = test system: C57B/6L wild-type sperm; assay: Bitter blocker probenecid on calcium responses of wild-type mouse sperm; assay type: cell-based; settings: 300 μM PTC alone
Description: as §2, §3
To confirm whether the germ cells' responses to bitter tastants were mediated by the bitter taste receptors, we examined the effect of the bitter taste receptor blocker probenecid (Greene et al, 2001) and nullification of the α-gustducin gene in Gnat3 α-gustducin knockout mice described in Wong et al, 1996. Probenecid is known to inhibit the responses of human T2R16, 38 and 43 to salicin, PTC and PROP, and aloin, but not that of T2R31 to saccharin (Greene et al, 2011).

[6] = response profile 1, total 49 cells
[7] = response profile 3, total 49 cells
[8] = response profile 4, total 49 cells
[9] = spermatids, response profile 1, total 29 cells
[10] = spermatids, response profile 3, total 29 cells
[11] = spermatids, response profile 5, total 29 cells
[12] = FIG. 6, epididymal sperm Cell 1
[13] = FIG. 6, epididymal sperm Cell 3
[14] = FIG. 6, epididymal sperm Cell 4
[15] = response profile 2, total 49 cells
[16] = response profile 5, total 49 cells
[17] = response profile 7, total 49 cells
[18] = response profile 8, total 49 cells
[19] = response profile 10, total 49 cells
[20] = spermatids, response profile 2, total 29 cells
[21] = spermatids, response profile 4, total 29 cells
[22] = spermatids, response profile 6, total 29 cells
[23] = FIG. 6, epididymal sperm Cell 5
[24] = response profile 6, total 49 cells
[25] = response profile 9, total 49 cells
[26] = response profile 11, total 49 cells

CCN(CC)CCNC(=O)c1ccc(N)cc1 [procainamide]
calcium response in the principal piece ([1]; spermatids): detectable but much smaller | increase in intracellular calcium, acrosome versus midpiece ([1]; spermatids): much larger in the acrosome than in the midpiece

OCc1ccccc1O[C@@H]1O[C@H](CO)[C@@H](O)[C@H](O)[C@H]1O [salicin]
calcium response of Gnat3−/− sperm [2]: unresponsive; also recorded: did not respond | number of cells responding ([1]; spermatids): No spermatids were found to respond | frequency of responsive cells ([3]; FIG. 6, epididymal sperm): rare | cells responding with calcium responses ([3]; epididymal sperm cells): about 14.3% | # CELLS RESPONDED [3, 6]: 4 | # CELLS RESPONDED [3, 7]: 1 | # CELLS RESPONDED [3, 8]: 1 | # CELLS RESPONDED ([3]; response profile 13, total 49 cells): 1

CCCc1cc(=O)[nH]c(=S)[nH]1 [PROP, 6-propyl-2 thiouracil]
calcium response of Gnat3−/− sperm [2]: unresponsive; also recorded: did not respond | EC50 ([1]; mouse spermatids, Fura-2 calcium imaging, normalized ΔF/F0, read-out: EC50 of calcium response): 24 ± 12 µM | cells responding with increased intracellular calcium ([1]; spermatids): 27.6% | # CELLS RESPONDED [1, 9]: 3 | # CELLS RESPONDED [1, 10]: 1 | # CELLS RESPONDED [1, 11]: 1 | # CELLS RESPONDED ([1]; spermatids, response profile 9, total 29 cells): 3 | calcium response at low concentrations ([1]; spermatids, 0.01, 0.1 and 1 μM): No responses | EC50 ([4]; four responding variants of the receptor): 2 to 4 µM | response of receptor variants ([4]; two of six variants): unresponsive | calcium response of individual cell [3, 12]: responded | calcium response of individual cell [3, 13]: weakly | calcium response of individual cell [3, 14]: responded weakly | calcium responses from the principal pieces [3]: mostly undetectable | cells responding with calcium responses ([3]; epididymal sperm cells): about 61.2% | # CELLS RESPONDED [3, 6]: 4 | # CELLS RESPONDED [3, 15]: 13 | # CELLS RESPONDED [3, 7]: 1 | # CELLS RESPONDED [3, 8]: 1 | # CELLS RESPONDED [3, 16]: 4 | # CELLS RESPONDED [3, 17]: 1 | # CELLS RESPONDED [3, 18]: 1 | # CELLS RESPONDED [3, 19]: 5 | amplitudes of the responses from the acrosome and midpiece [3]: equally strong

Nc1ncnc2c1ncn2[C@@H]1O[C@H](COP(=O)(O)OP(=O)(O)OP(=O)(O)O)[C@@H](O)[C@H]1O [ATP]
calcium response of Gnat3−/− sperm [2]: normal; also recorded: did respond

CC[N+](CC)(CC(=O)Nc1c(C)cccc1C)Cc1ccccc1 [denatonium]
calcium response of Gnat3−/− sperm [2]: unresponsive; also recorded: did not respond | cells responding with increased intracellular calcium ([1]; spermatids): 55.2% | calcium response in the principal piece ([1]; spermatids): detectable but much smaller | # CELLS RESPONDED [1, 9]: 3 | # CELLS RESPONDED [1, 20]: 1 | # CELLS RESPONDED [1, 21]: 7 | # CELLS RESPONDED [1, 22]: 1 | # CELLS RESPONDED ([1]; spermatids, response profile 8, total 29 cells): 4 | increase in intracellular calcium, acrosome versus midpiece ([1]; spermatids): much larger in the acrosome than in the midpiece | calcium response of individual cell [3, 12]: responded | calcium response of individual cell [3, 14]: responded weakly | calcium response of individual cell [3, 23]: responded weakly | calcium responses from the principal pieces [3]: mostly undetectable | cells responding with calcium responses ([3]; epididymal sperm cells): ~53.1% | # CELLS RESPONDED [3, 6]: 4 | # CELLS RESPONDED [3, 15]: 13 | # CELLS RESPONDED [3, 7]: 1 | # CELLS RESPONDED [3, 16]: 4 | # CELLS RESPONDED [3, 24]: 1 | # CELLS RESPONDED [3, 18]: 1 | # CELLS RESPONDED [3, 25]: 1 | # CELLS RESPONDED [3, 26]: 1 | amplitudes of the responses from the acrosome and midpiece [3]: equally strong

C[C@@H]1C[C@@H]([C@H](O)CC2CC(=O)NC(=O)C2)C(=O)[C@@H](C)C1 [cycloheximide]
calcium response of Gnat3−/− sperm [2]: did not respond | calcium response of Gnat3−/− sperm ([2]; listed as cyclohexmide): unresponsive | cells responding with increased intracellular calcium ([1]; spermatids): 62.1% | number of cells responding ([1]; spermatids): 18 | # CELLS RESPONDED [1, 9]: 3 | # CELLS RESPONDED [1, 20]: 1 | # CELLS RESPONDED [1, 10]: 1 | # CELLS RESPONDED [1, 21]: 7 | # CELLS RESPONDED [1, 11]: 1 | # CELLS RESPONDED ([1]; spermatids, response profile 7, total 29 cells): 5 | calcium response of individual cell [3, 12]: responded | calcium response of individual cell ([3]; FIG. 6, epididymal sperm Cell 2): responded only | calcium response of individual cell [3, 13]: responded | calcium response of individual cell [3, 14]: responded weakly | calcium response of individual cell [3, 23]: responded weakly | calcium responses from the principal pieces [3]: mostly undetectable | cells responding with calcium responses ([3]; epididymal sperm cells): 93.9% | number of cells responding ([3]; epididymal sperm cells, out of 49 cells): 46 | # CELLS RESPONDED [3, 6]: 4 | # CELLS RESPONDED [3, 15]: 13 | # CELLS RESPONDED [3, 7]: 1 | # CELLS RESPONDED [3, 8]: 1 | # CELLS RESPONDED [3, 16]: 4 | # CELLS RESPONDED [3, 24]: 1 | # CELLS RESPONDED [3, 17]: 1 | # CELLS RESPONDED [3, 25]: 1 | # CELLS RESPONDED [3, 19]: 5 | # CELLS RESPONDED ([3]; response profile 12, total 49 cells): 15 | amplitudes of the responses from the acrosome and midpiece [3]: equally strong

NC(=S)Nc1ccccc1 [PTC, N-phenylthiourea]
calcium response of Gnat3−/− sperm [2]: unresponsive; also recorded: did not respond | increase in the intracellular calcium concentration [5]: significant | calcium response in the principal piece ([1]; spermatids): detectable but much smaller | # CELLS RESPONDED [1, 9]: 3 | # CELLS RESPONDED [1, 20]: 1 | # CELLS RESPONDED [1, 10]: 1 | # CELLS RESPONDED [1, 22]: 1 | # CELLS RESPONDED ([1]; spermatids, response profile 10, total 29 cells): 3 | increase in intracellular calcium, acrosome versus midpiece ([1]; spermatids): much larger in the acrosome than in the midpiece | calcium response of individual cell [3, 12]: responded | calcium responses from the principal pieces [3]: mostly undetectable | # CELLS RESPONDED [3, 6]: 4 | # CELLS RESPONDED [3, 15]: 13 | # CELLS RESPONDED [3, 8]: 1 | # CELLS RESPONDED [3, 24]: 1 | # CELLS RESPONDED [3, 17]: 1 | # CELLS RESPONDED [3, 18]: 1 | # CELLS RESPONDED [3, 26]: 1 | amplitudes of the responses from the acrosome and midpiece [3]: equally strong
